Measurements as given in patent US20260216216A1, “(N-ALKYLDIHYDROL-2H-OXAZINYL)-CANNABIDIOL AS ANTI-PROLIFERATIVE AGENT AND PROCESS FOR PREPARATION THEREOF” (COUNCIL OF SCIENTIFIC AND INDUSTRIAL RESEARCH, priority 2022, published 2026).
Read-outs that look alike come from different tables or passages of the source.

How the values were obtained:
[1] = test system: HCT-116 (colorectal cancer) cell line; experiment: SRB in-vitro cytotoxicity assay, HCT-116; conditions: Homo sapiens
Procedure: (§1) All the ring annulated analogues of cannabinoid were evaluated for their cytotoxicity against number of human cancer cell lines. To evaluate the in-vitro cytotoxicity, a sulphorhodamine B (SRB) assay was carried out. SRB is a negatively charged pink aminoxanthine dye that binds to the basic amino acid of cells in mildly acidic conditions and is removed in basic conditions. […] When cells reached 60-70% confluency, trypsinized and seeded in 96 well plates according to their inoculation density and incubated for 24 hours to attain their proper morphology. Next-day cells were again incubated for 48 hours with test compounds or paclitaxel (positive control). Next, cells were fixed with 50% of ice-cold TCA for 1 hours, washed with distilled water, and kept for air drying. Air-dried plates were then stained with 0.4% SRB dye for 30 minutes and subsequently with water and 1% v/v glacial acetic acid were then kept for air drying. […] The viability of cells is measured based on bound dye after fixation, which is measured by absorbance at 540 nm.

[2] = test system: MCF-7 (breast cancer) cell line; experiment: SRB in-vitro cytotoxicity assay, MCF-7; conditions: Homo sapiens
Procedure: as §1

[3] = test system: A549 (lung cancer) cell line; experiment: SRB in-vitro cytotoxicity assay, A549; conditions: Homo sapiens
Procedure: as §1

[4] = test system: PC-3 (prostate cancer) cell line; experiment: SRB in-vitro cytotoxicity assay, PC-3; conditions: Homo sapiens
Procedure: as §1

[5] = test system: U251 (glioblastoma) cell line; experiment: SRB in-vitro cytotoxicity assay, U251; conditions: Homo sapiens
Procedure: as §1

[6] = test system: Mia-PaCa (pancreatic cancer) cell line; experiment: SRB in-vitro cytotoxicity assay, Mia-PaCa; conditions: Homo sapiens
Procedure: as §1

in vitro = conditions: human
Procedure: as §1

[7] = test system: HEK-293 (normal cell lines); experiment: SRB in-vitro cytotoxicity assay, HEK-293; conditions: Homo sapiens, HEK293, read-out: inhibition against HEK-293 cell lines
Procedure: as §1

[8] = HCT-116, 48 h, read-out: Cytotoxicity (in vitro cell inhibition) HCT-116
[9] = HCT-116, read-out: inhibition against HCT-116 cell lines
[10] = MCF7, 48 h, read-out: Cytotoxicity (in vitro cell inhibition) MCF-7
[11] = MCF7, read-out: inhibition against MCF-7 cell lines
[12] = A549, 48 h, read-out: Cytotoxicity (in vitro cell inhibition) A549
[13] = A549, read-out: inhibition against A549 cell lines
[14] = 48 h, read-out: Cytotoxicity (in vitro cell inhibition) PC3
[15] = PC-3, read-out: inhibition against PC3 cell lines
[16] = U-251, 48 h, read-out: Cytotoxicity (in vitro cell inhibition) U251
[17] = MIA PaCa-2, 48 h, read-out: Cytotoxicity (in vitro cell inhibition) Mia-PaCa
[18] = MIA PaCa-2, read-out: inhibition against Mia-PaCa cell lines
[19] = U-251, read-out: inhibition against U251 cell lines

Row | SMILES | inhibition at 20 µM [1, 8] | inhibition at 20 µM [1, 9] | inhibition at 20 µM [2, 10] | inhibition at 20 µM [2, 11] | inhibition at 20 µM [3, 12] | inhibition at 20 µM [3, 13] | inhibition at 20 µM [4, 14] | inhibition at 20 µM [4, 15] | inhibition at 20 µM [5, 16] | inhibition at 20 µM [6, 17] | inhibition at 20 µM [6, 18] | inhibition at 20 µM [5, 19] | inhibition at 20 µM (in vitro) | inhibition at 48 h, 20 µM (in vitro) | also measured
1 | C=C(C)[C@@H]1CCC(C)=C[C@H]1c1c(O)cc(CCCCC)cc1O [IIa, cannabidiol] | > 70% | > 70% | 50 to 70% | > 50% | > 70% | > 70% | 50 to 70% | > 50% | < 50% | – | – | – | – | – | –
2 | C=C(C)[C@@H]1CCC(C)=C[C@H]1c1c(O)cc(CCCCC)c2c1OCN(C)C2 [Ia, (N-methyldihydrol-2H-oxazinyl)-cannabidiol] | 50 to 70% | > 50% | > 70% | > 70% | > 70% | > 70% | > 70% | > 70% | > 70% | > 70% | > 70% | > 70% | > 70% | – | inhibition at 20 µM [7]: > 70%
3 | C=C(C)[C@@H]1CCC(C)=C[C@H]1c1c(O)cc(CCCCC)c2c1OCN(CC)C2 [Ib, (N-ethyldihydrol-2H-oxazinyl)-cannabidiol] | 50 to 70% | > 50% | > 70% | > 70% | > 70% | > 70% | > 70% | > 70% | 50 to 70% | > 70% | > 70% | > 50% | 50 to 70% | – | inhibition at 20 µM [7]: > 50%
4 | C=C(C)[C@@H]1CCC(C)=C[C@H]1c1c(O)cc(CCCCC)c2c1OCN(CCC)C2 [Ic, (N-propyldihydrol-2H-oxazinyl)-cannabidiol] | 50 to 70% | > 50% | > 70% | > 70% | 50 to 70% | > 50% | 50 to 70% | > 50% | 50 to 70% | > 70% | > 70% | > 50% | < 50% | – | –
5 | C=C(C)[C@@H]1CCC(C)=C[C@H]1c1c(O)cc(CCCCC)c2c1OCN(CCCC)C2 [Id, (N-butyldihydrol-2H-oxazinyl)-cannabidiol] | > 70% | > 70% | > 70% | > 70% | > 70% | > 70% | > 70% | > 70% | 50 to 70% | > 70% | > 70% | > 50% | < 50% | – | IC50 ([1]; HCT-116, read-out: IC50 against HCT-116): 4.1 µM; IC50 ([2]; MCF7, read-out: IC50 against MCF-7): 2.89 µM; IC50 ([3]; A549, read-out: IC50 against A549): 9.36 µM; IC50 ([6]; MIA PaCa-2, read-out: IC50 against Mia-PaCa-2): 11.5 µM; IC50 ([4]; read-out: IC50 against PC-3): 4.2 µM; IC50 ([5]; U-251, read-out: IC50 against U251): 17.4 µM
6 | C=C(C)[C@@H]1CCC(C)=C[C@H]1c1c(O)cc(CCCCC)c2c1OCN(CCCCCC)C2 [Ie, (N-hexyldihydrol-2H-oxazinyl)-cannabidiol] | > 70% | > 70% | > 70% | > 70% | < 50% | – | < 50% | – | < 50% | < 50% | – | – | – | < 50% | –
7 | C=C(C)[C@@H]1CCC(C)=C[C@H]1c1c(O)cc(CCCCC)c2c1OCN(CCCN1CCOCC1)C2 [If, (N-morpholinopropyldihydrol-2H-oxazinyl)-cannabidiol] | 50 to 70% | > 50% | > 70% | > 70% | > 70% | > 70% | > 70% | > 70% | > 70% | > 70% | > 70% | > 70% | – | 50 to 70% | inhibition at 20 µM [7]: > 50%
8 | C=C(C)[C@@H]1CCC(C)=C[C@H]1c1c(O)cc(CCCCC)c2c1OCN(C1CC1)C2 [Ig, (N-cyclopropyldihydrol-2H-oxazinyl)-cannabidiol] | 50 to 70% | > 50% | 50 to 70% | > 50% | 50 to 70% | > 50% | 50 to 70% | > 50% | < 50% | < 50% | – | – | < 50% | – | –
9 | C=C(C)[C@@H]1CCC(C)=C[C@H]1c1c(O)cc(CCCCC)c2c1OCN(C1CCC1)C2 [Ih, (N-cyclobutyldihydrol-2H-oxazinyl)-cannabidiol] | 50 to 70% | > 50% | > 70% | > 70% | 50 to 70% | > 50% | > 70% | > 70% | 50 to 70% | > 70% | > 70% | > 50% | 50 to 70% | – | inhibition at 20 µM [7]: > 50%
10 | C=C(C)[C@@H]1CCC(C)=C[C@H]1c1c(O)cc(CCCCC)c2c1OCN(C1CCCCCC1)C2 [Ii, (N-cycloheptyldihydrol-2H-oxazinyl)-cannabidiol] | 50 to 70% | > 50% | > 70% | > 70% | > 70% | > 70% | 50 to 70% | > 50% | < 50% | > 70% | > 70% | – | – | < 50% | –
11 | C=C(C)[C@@H]1CCC(C)=C[C@H]1c1c(O)cc(CCCCC)c2c1OCN(c1ccccc1)C2 [Ij, (N-phenyldihydrol-2H-oxazinyl)-cannabidiol] | < 50% | – | < 50% | – | < 50% | – | < 50% | – | < 50% | < 50% | – | – | – | < 50% | –
12 | C=C(C)[C@@H]1CCC(C)=C[C@H]1c1c(O)cc(CCCCC)c2c1OCN(c1ccc(C(C)C)cc1)C2 [Ik, (N-isopropylphenyldihydrol-2H-oxazinyl)-cannabidiol] | < 50% | – | < 50% | – | < 50% | – | < 50% | – | < 50% | < 50% | – | – | – | < 50% | –
13 | C=C(C)[C@@H]1CCC(C)=C[C@H]1c1c(O)cc(CCCCC)c2c1OCN(c1ccc(OC(F)(F)F)cc1)C2 [Il, (N-trifluoromethoxyphenyldihydrol-2H-oxazinyl)-cannabidiol] | < 50% | – | < 50% | – | < 50% | – | < 50% | – | < 50% | < 50% | – | – | – | < 50% | –
14 | C=C(C)[C@@H]1CCC(C)=C[C@H]1c1c(O)cc(CCCCC)c2c1OCN(c1cnc3ccccc3c1)C2 [Im, (N-quinolinedihydrol-2H-oxazinyl)-cannabidiol] | < 50% | – | < 50% | – | < 50% | – | < 50% | – | < 50% | < 50% | – | – | – | < 50% | –
15 | C=C(C)[C@@H]1CCC(C)=C[C@H]1c1c(O)cc(CCCCC)c2c1OCN(Cc1ccccc1)C2 [In, (N-benzyldihydrol-2H-oxazinyl)-cannabidiol] | – | > 50% | < 50% | – | – | > 50% | – | > 50% | < 50% | < 50% | – | – | – | < 50% | –
16 | C=C(C)[C@@H]1CCC(C)=C[C@H]1c1c(O)cc(CCCCC)c2c1OCN(c1ccccc1F)C2 [Io, (N-2-fluorophenyldihydrol-2H-oxazinyl)-cannabidiol] | < 50% | – | < 50% | – | < 50% | – | < 50% | – | < 50% | < 50% | – | – | – | < 50% | –
